Patent publication US10105357B2, “Indication of antibiotic drugs for preparation of cancer inhibition pharmaceutical composition” (LAUNX BIOMEDICAL CO., LTD., priority 2014, dated 2018)
Counter-ions that a name gives are not always drawn. Like-named read-outs stand apart in the source and are kept apart here.

Columns and labels:
Format in all cases: cell-based, human
[1] = system: LoVo (Colorectal Adenocarcinoma); experiment: Cell viability analysis, colon cancer LoVo; details: Homo sapiens, LoVo
[2] = system: MCF7 (Mammary Gland, Adenocarcinoma); experiment: Cell viability analysis, breast cancer MCF7; details: Homo sapiens
cancer cell lines = experiment: Cell viability analysis (WST-1) on cancer cell lines; details: drug 10 μM, 72 hours, WST-1; Table 3
[3] = system: HepG2 (Hepatocellular Carcinoma); experiment: Cell viability analysis, hepatic cancer HepG2; details: Homo sapiens
[4] = system: HL-60 (Acute Promyelocytic Leukemia); experiment: Cell viability analysis, leukemia HL-60; details: Homo sapiens
[5] = system: HI650 (Lung Adenocarcinoma); experiment: Cell viability analysis, lung cancer HI650; details: Homo sapiens
[6] = system: TSGH-8301 (Urinary Bladder Carcinoma); experiment: Cell viability analysis, bladder cancer TSGH-8301; details: Homo sapiens
[7] = system: HeLa (Cervix Adenocarcinoma); experiment: Cell viability analysis, cervical cancer HeLa; details: Homo sapiens, HeLa
[8] = system: AGS (Gastric Adenocarcinoma); experiment: Cell viability analysis, gastric cancer AGS; details: Homo sapiens
[9] = system: MKN-45 (Gastric Adenocarcinoma); experiment: Cell viability analysis, gastric cancer MKN-45; details: Homo sapiens
[10] = system: A549 (Lung Adenocarcinoma); experiment: Cell viability analysis, lung cancer A549; details: Homo sapiens
[11] = system: A375 (Amelanotic Melanoma); experiment: Cell viability analysis, skin cancer A375; details: Homo sapiens
[12] = system: PC3 (p53−) (Prostate Adenocarcinoma); experiment: Cell viability analysis, prostate cancer PC3; details: Homo sapiens
[13] = 72 h, read-out: cell viability (survival rate), LoVo, drug 10 μM, 72 hours, WST-1, OD450 nm
[14] = MCF7, 72 h, read-out: cell viability (survival rate), MCF7, drug 10 μM, 72 hours, WST-1, OD450 nm
[15] = HepG2, 72 h, read-out: cell viability (survival rate), HepG2, drug 10 μM, 72 hours, WST-1, OD450 nm
[16] = HL-60, 72 h, read-out: cell viability (survival rate), HL-60, drug 10 μM, 72 hours, WST-1, OD450 nm
[17] = NCI-H1650, 72 h, read-out: cell viability (survival rate), H1650, drug 10 μM, 72 hours, WST-1, OD450 nm
[18] = 72 h, read-out: cell viability (survival rate), TSGH, drug 10 μM, 72 hours, WST-1, OD450 nm
[19] = 72 h, read-out: cell viability (survival rate), HeLa, drug 10 μM, 72 hours, WST-1, OD450 nm
[20] = 72 h, read-out: cell viability (survival rate), AGS, drug 10 μM, 72 hours, WST-1, OD450 nm
[21] = MKN-45, 72 h, read-out: cell viability (survival rate), MKN-45, drug 10 μM, 72 hours, WST-1, OD450 nm
[22] = A549, 72 h, read-out: cell viability (survival rate), A549, drug 10 μM, 72 hours, WST-1, OD450 nm
[23] = A-375, 72 h, read-out: cell viability (survival rate), A375, drug 10 μM, 72 hours, WST-1, OD450 nm
[24] = 72 h, read-out: cell viability (survival rate), PC3, drug 10 μM, 72 hours, WST-1, OD450 nm
[25] = drug 10 μM, 72 hours, WST-1, OD450 nm, read-out: cell viability (survival rate), LoVo
[26] = MCF7, drug 10 μM, 72 hours, WST-1, OD450 nm, read-out: cell viability (survival rate), MCF7
[27] = HepG2, drug 10 μM, 72 hours, WST-1, OD450 nm, read-out: cell viability (survival rate), HepG2
[28] = HL-60, drug 10 μM, 72 hours, WST-1, OD450 nm, read-out: cell viability (survival rate), HL-60
[29] = NCI-H1650, drug 10 μM, 72 hours, WST-1, OD450 nm, read-out: cell viability (survival rate), H1650
[30] = drug 10 μM, 72 hours, WST-1, OD450 nm, read-out: cell viability (survival rate), TSGH
[31] = drug 10 μM, 72 hours, WST-1, OD450 nm, read-out: cell viability (survival rate), HeLa
[32] = drug 10 μM, 72 hours, WST-1, OD450 nm, read-out: cell viability (survival rate), AGS
[33] = MKN-45, drug 10 μM, 72 hours, WST-1, OD450 nm, read-out: cell viability (survival rate), MKN-45
[34] = A549, drug 10 μM, 72 hours, WST-1, OD450 nm, read-out: cell viability (survival rate), A549
[35] = A-375, drug 10 μM, 72 hours, WST-1, OD450 nm, read-out: cell viability (survival rate), A375
[36] = drug 10 μM, 72 hours, WST-1, OD450 nm, read-out: cell viability (survival rate), PC3

| SMILES | viability at 10 µM [1, 13] [%] | viability at 10 µM [2, 14] [%] | inhibition effect on different cancer cell lines (cancer cell lines) | viability at 10 µM [3, 15] [%] | viability at 10 µM [4, 16] [%] | viability at 10 µM [5, 17] [%] | viability at 10 µM [6, 18] [%] | viability at 10 µM [7, 19] [%] | viability at 10 µM [8, 20] [%] | viability at 10 µM [9, 21] [%] | viability at 10 µM [10, 22] [%] | viability at 10 µM [11, 23] [%] | viability at 10 µM [12, 24] [%] | other results |
| --- | --- | --- | --- | --- | --- | --- | --- | --- | --- | --- | --- | --- | --- | --- |
| CCCCCCCCCC(=O)N[C@@H](Cc1c[nH]c2ccccc12)C(=O)N[C@H](CC(N)=O)C(=O)N[C@@H](CC(=O)O)C(=O)N[C@@H]1C(=O)NCC(=O)N[C@@H](CCCN)C(=O)N[C@@H](CC(=O)O)C(=O)N[C@H](C)C(=O)N[C@@H](CC(=O)O)C(=O)NCC(=O)N[C@H](CO)C(=O)N[C@@H]([C@H](C)CC(=O)O)C(=O)N[C@@H](CC(=O)c2ccccc2N)C(=O)O[C@@H]1C [Daptomycin] | 90.9 | 85.3 | significant inhibition effect | 95.9 | 108 | 76.3 | 56.8 | 114 | 63 | 92.1 | 74 | 81.2 | 79.7 | – |
| CN1CCC(=C2c3ccccc3CCc3cccnc32)CC1 [Azatadine dimaleate] | 95.7 | – | significant inhibition effect | – | – | – | – | – | – | – | – | – | – | viability at 10 µM ([2]; MCF7, 72 h, drug 10 μM, 72 hours, WST-1, OD450 nm, read-out: cell viability (survival rate), MCF7): 79.7%; viability at 10 µM ([3]; HepG2, 72 h, drug 10 μM, 72 hours, WST-1, OD450 nm, read-out: cell viability (survival rate), HepG2): 84.5%; viability at 10 µM ([4]; HL-60, 72 h, drug 10 μM, 72 hours, WST-1, OD450 nm, read-out: cell viability (survival rate), HL-60): 113%; viability at 10 µM ([5]; NCI-H1650, 72 h, drug 10 μM, 72 hours, WST-1, OD450 nm, read-out: cell viability (survival rate), H1650): 48.5%; viability at 10 µM ([6]; 72 h, drug 10 μM, 72 hours, WST-1, OD450 nm, read-out: cell viability (survival rate), TSGH): 78.5%; viability at 10 µM ([7]; 72 h, drug 10 μM, 72 hours, WST-1, OD450 nm, read-out: cell viability (survival rate), HeLa): 72.2%; viability at 10 µM ([8]; 72 h, drug 10 μM, 72 hours, WST-1, OD450 nm, read-out: cell viability (survival rate), AGS): 67.1%; viability at 10 µM ([9]; MKN-45, 72 h, drug 10 μM, 72 hours, WST-1, OD450 nm, read-out: cell viability (survival rate), MKN-45): 83.4%; viability at 10 µM ([10]; A549, 72 h, drug 10 μM, 72 hours, WST-1, OD450 nm, read-out: cell viability (survival rate), A549): 123%; viability at 10 µM ([11]; A-375, 72 h, drug 10 μM, 72 hours, WST-1, OD450 nm, read-out: cell viability (survival rate), A375): 40.7%; viability at 10 µM ([12]; 72 h, drug 10 μM, 72 hours, WST-1, OD450 nm, read-out: cell viability (survival rate), PC3): 104% |
| O=C(O)Cc1ccccc1Nc1c(Cl)cccc1Cl [Diclofenac Potassium] | 85 | 76.3 | significant inhibition effect | 107 | 96.3 | 43.9 | 122 | 76.1 | 91.4 | 40.5 | 81.7 | 51.5 | 63.3 | – |
| C[C@@H]1[C@H](O)[C@@H](C)/C=C/C=C/C=C/C=C/C=C/C=C/C=C/[C@H](O[C@@H]2O[C@H](C)[C@@H](O)[C@H](N)[C@@H]2O)C[C@@H]2O[C@](O)(C[C@@H](O)C[C@@H](O)[C@H](O)CC[C@@H](O)C[C@@H](O)CC(=O)O[C@H]1C)C[C@H](O)[C@H]2C(=O)O [Amphotericin B (Abelcet), Amphotericin B] | 66.5 | 38.9 | significant inhibition effect | 90.3 | 116 | 61.2 | 56 | 84.5 | 28.5 | 44 | 45 | 98.9 | 66.9 | – |
| COC(=O)Nc1nc2ccc(Sc3ccccc3)cc2[nH]1 [Fenbendazole (Panacur), Fenbendazole] | 52.9 | 55.8 | significant inhibition effect | 76.1 | 66.6 | 60.2 | 27.2 | 38.6 | 29.9 | 40.3 | 40.9 | 40.6 | 42 | – |
| COc1cccc(N(C)C(=S)Oc2ccc3c(c2)CCCC3)n1 [Liranaftate] | – | – | significant inhibition effect | – | – | – | – | – | – | – | – | – | – | viability at 10 µM [1, 25]: 86.6%; viability at 10 µM [2, 26]: 84.8%; viability at 10 µM [3, 27]: 79.8%; viability at 10 µM [4, 28]: 92%; viability at 10 µM [5, 29]: 50.7%; viability at 10 µM [6, 30]: 108%; viability at 10 µM [7, 31]: 89%; viability at 10 µM [8, 32]: 73.6%; viability at 10 µM [9, 33]: 76.7%; viability at 10 µM [10, 34]: 67.1%; viability at 10 µM [11, 35]: 84.5%; viability at 10 µM [12, 36]: 92.7% |
| C[C@]12C=CC(=O)C=C1CC[C@@H]1[C@@H]2[C@@H](O)C[C@@]2(C)[C@H]1CC[C@]2(O)C(=O)CO [Prednisolone (Hydroretrocortine), Prednisolone] | 92.5 | 45.5 | significant inhibition effect | 82.7 | 99 | 82.5 | 86.2 | 78.7 | 124 | 67.8 | 71.3 | 71 | 83.3 | – |
| CC(C)OC(=O)OCOP(=O)(CO[C@H](C)Cn1cnc2c(N)ncnc21)OCOC(=O)OC(C)C [Tenofovir Disoproxil Fumarate] | – | – | significant inhibition effect | – | – | – | – | – | – | – | – | – | – | viability at 10 µM [1, 25]: 75.8%; viability at 10 µM [2, 26]: 68.7%; viability at 10 µM [3, 27]: 93.7%; viability at 10 µM [4, 28]: 93.4%; viability at 10 µM [5, 29]: 50.9%; viability at 10 µM [6, 30]: 88.2%; viability at 10 µM [7, 31]: 85.7%; viability at 10 µM [8, 32]: 54.7%; viability at 10 µM [9, 33]: 71.6%; viability at 10 µM [10, 34]: 47%; viability at 10 µM [11, 35]: 67.1%; viability at 10 µM [12, 36]: 66.9% |
| C[C@H]1[C@H](NC(=O)/C(=N\OC(C)(C)C(=O)O)c2csc(N)n2)C(=O)N1S(=O)(=O)O [Aztreonam (Azactam, Cayston), Aztreonam] | 76.3 | 68.6 | significant inhibition effect | 111 | 113 | 48.6 | 52.3 | 87.2 | 40.9 | 60.5 | 56.9 | 88.6 | 55.2 | – |
